Data: patent US20260078120A1, “SUBSTITUTED PYRIDOPYRIMIDINONES” (MIRATI THERAPEUTICS, INC., priority 2022, published 2026)

Assays:
[1] = system: T47D (PI3Kα H1047R mutant) cells; experiment: CellTiter-Glo 2.0 luminescent cell viability assay, 72 hours, T47D cells; assay type: cell-based; details: Homo sapiens, T47D, 72 h, T47D (PI3Kα H1047R mutant) cells, CellTiter-Glo, approximately 72 hours; read-out: T47D (H1047R mutant) Viability IC50
In short: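 Viability was measured by CellTiter-Glo 2.0 luminescence after approximately 72 h of compound exposure at 37° C. Plating was 1000 cells per well the day before dosing, with ten 1:4 dilutions from a 10 µM top concentration. Values as percent of vehicle were fitted by variable-slope log(inhibitor) regression to give IC50.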

[2] = system: SKBR3 (PI3Kα wild type) cells; experiment: CellTiter-Glo 2.0 luminescent cell viability assay, 72 hours, SKBR3 cells; assay type: cell-based; details: Homo sapiens, SK-BR-3, 72 h, SKBR3 (PI3Kα wild type) cells, CellTiter-Glo, approximately 72 hours; read-out: SKBR3 (WT) Viability IC50
In short: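 Viability measured via CTG luminescence following roughly 72 hours of compound exposure at 37° C. Dosing used a 10 um starting concentration diluted 1:4 over 10 points; percent-of-vehicle data fitted with a variable-slope four-parameter model for IC50.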

| IC50 [1] [nM] | IC50 [2] [nM] | SMILES |
| --- | --- | --- |
| 43.2 | > 10000 | Cc1cc([C@@H](C)Nc2ccccc2C(=O)O)c2nc(N3Cc4ccc(C(F)F)cc4C3)c(C)c(=O)n2c1 [Example 10-128, (R)-2-((1-(2-(5-(difluoromethyl)isoindolin-2-yl)-3,7-dimethyl-4-oxo-4H-pyrido[1,2-a]pyrimidin-9-yl)ethyl)amino)benzoic acid] |
| > 10000 | > 10000 | Cc1cc([C@@H](C)Nc2ccccc2C(=O)O)c2nc(Cl)c(C)c(=O)n2c1 [Example 11-242, (R)-2-((1-(2-chloro-3,7-dimethyl-4-oxo-4H-pyrido[1,2-a]pyrimidin-9-yl)ethyl)amino)benzoic acid] |
| > 10000 | > 10000 | C#CC(Nc1ccccc1C(=O)O)c1cc(C)cn2c(=O)c(C)c(N3CCC(F)(F)CC3)nc12 (stereo not drawn) [Example 11-241, 2-((1-(2-(4,4-difluoropiperidin-1-yl)-3,7-dimethyl-4-oxo-4H-pyrido[1,2-a]pyrimidin-9-yl)prop-2-yn-1-yl)amino)benzoic acid] |
| 132 | > 10000 | CO[C@H]1CN(c2nc3c([C@@H](C)Nc4ccccc4C(=O)O)cc(C)cn3c(=O)c2C)CCC1(F)F [Example 11-57, 2-(((R)-1-(2-((S)-4,4-difluoro-3-methoxypiperidin-1-yl)-3,7-dimethyl-4-oxo-4H-pyrido[1,2-a]pyrimidin-9-yl)ethyl)amino)benzoic acid] |
| 56.6 | > 10000 | Cc1cc([C@@H](C)Nc2ccccc2C(=O)O)c2nc(N3Cc4ccc(F)cc4C3)c(C)c(=O)n2c1 [Example 10-134, (R)-2-((1-(2-(5-fluoroisoindolin-2-yl)-3,7-dimethyl-4-oxo-4H-pyrido[1,2-a]pyrimidin-9-yl)ethyl)amino)benzoic acid] |
| > 10000 | > 10000 | Cc1cc(C(C)Nc2ccccc2C(=O)O)c2nc(C3CCNCC3)cc(=O)n2c1 (stereo not drawn) [Example 11-380, 2-((1-(7-methyl-4-oxo-2-(piperidin-4-yl)-4H-pyrido[1,2-a]pyrimidin-9-yl)ethyl)amino)benzoic acid] |
| 310 | > 10000 | Cc1cc([C@@H](C)Nc2ccc(Cl)nc2C(=O)O)c2nc(N3CCN(c4ccc(F)cc4)C[C@H]3C)c(C#N)c(=O)n2c1 [Example 11-131, 6-chloro-3-(((R)-1-(3-cyano-2-((R)-4-(4-fluorophenyl)-2-methylpiperazin-1-yl)-7-methyl-4-oxo-4H-pyrido[1,2-a]pyrimidin-9-yl)ethyl)amino)picolinic acid] |
| > 10000 | > 10000 | Cc1cc(C(C)Nc2ccccc2C(=O)O)c2nc(SC3CCOC3)cc(=O)n2c1 (stereo not drawn) [Example 11-370, 2-((1-(7-methyl-4-oxo-2-((tetrahydrofuran-3-yl)thio)-4H-pyrido[1,2-a]pyrimidin-9-yl)ethyl)amino)benzoic acid] |
| 300 | > 10000 | Cc1cc([C@@H](C)Nc2ccccc2C(=O)O)c2nc(N3CCN(c4nc(C)cs4)CC3)c(C)c(=O)n2c1 [Example 11-446, (R)-2-((1-(3,7-dimethyl-2-(4-(4-methylthiazol-2-yl)piperazin-1-yl)-4-oxo-4H-pyrido[1,2-a]pyrimidin-9-yl)ethyl)amino)benzoic acid] |

The remaining lines, values behind:

| SMILES | IC50 [1] [nM] | IC50 [2] [nM] |
| --- | --- | --- |
| Cc1cc([C@@H](C)Nc2ccccc2C(=O)O)c2nc(N3C4CCC3c3ccccc34)c(C#N)c(=O)n2c1 [Example 11-214, 2-(((1R)-1-(3-cyano-7-methyl-4-oxo-2-(1,2,3,4-tetrahydro-1,4-epiminonaphthalen-9-yl)-4H-pyrido[1,2-a]pyrimidin-9-yl)ethyl)amino)benzoic acid] | 262 | > 10000 |
| Cc1cc(C(C)Nc2ccc(Cl)nc2C(=O)O)c2nc(N3CCCCC3)c(C)c(=O)n2c1 (stereo not drawn) [Example 11-359, 6-chloro-3-((1-(3,7-dimethyl-4-oxo-2-(piperidin-1-yl)-4H-pyrido[1,2-a]pyrimidin-9-yl)ethyl)amino)picolinic acid] | 362 | 8110 |
| Cc1cc([C@@H](C)Nc2ccccc2C(=O)O)c2nc(N3CC4CC3CC4C)c(C)c(=O)n2c1 (stereo partly drawn) [Example 10-136, 2-(((1R)-1-(3,7-dimethyl-2-(5-methyl-2-azabicyclo[2.2.1]heptan-2-yl)-4-oxo-4H-pyrido[1,2-a]pyrimidin-9-yl)ethyl)amino)benzoic acid] | 64.2 | > 10000 |
| Cc1cc(C(C)Nc2ccccc2C(=O)O)c2nc(N3C4CCC3CC4)cc(=O)n2c1 (stereo not drawn) [Example 11-344, 2-((1-(2-(7-azabicyclo[2.2.1]heptan-7-yl)-7-methyl-4-oxo-4H-pyrido[1,2-a]pyrimidin-9-yl)ethyl)amino)benzoic acid] | 2150 | > 10000 |
| Cc1cc([C@@H](C)Nc2ccccc2C(=O)O)c2nc(N3CC(F)(F)C[C@H]3C)c(C)c(=O)n2c1 [Example 11-125, 2-(((R)-1-(2-((R)-4,4-difluoro-2-methylpyrrolidin-1-yl)-3,7-dimethyl-4-oxo-4H-pyrido[1,2-a]pyrimidin-9-yl)ethyl)amino)benzoic acid] | 531 | > 10000 |
| Cc1cc([C@@H](C)Nc2cccnc2C(=O)O)c2nc(N3CCC(F)(F)CC3)c(C#N)c(=O)n2c1 [Example 10-121, (R)-3-((1-(3-cyano-2-(4,4-difluoropiperidin-1-yl)-7-methyl-4-oxo-4H-pyrido[1,2-a]pyrimidin-9-yl)ethyl)amino)picolinic acid] | 103 | > 10000 |
| Cc1cc([C@@H](C)Nc2ccccc2C(=O)O)c2nc([C@H]3CCN(C)C(=O)C3)cc(=O)n2c1 [Example 11-376, 2-(((R)-1-(7-methyl-2-((S)-1-methyl-2-oxopiperidin-4-yl)-4-oxo-4H-pyrido[1,2-a]pyrimidin-9-yl)ethyl)amino)benzoic acid] | 6000 | > 10000 |
| Cc1cc(C(C)Nc2ccccc2C(=O)O)c2nc(OC3CCOC3)cc(=O)n2c1 (stereo not drawn) [Example 11-371, 2-((1-(7-methyl-4-oxo-2-((tetrahydrofuran-3-yl)oxy)-4H-pyrido[1,2-a]pyrimidin-9-yl)ethyl)amino)benzoic acid] | 9070 | 3040 |
| Cc1cc([C@@H](C)Nc2cnc(Cl)nc2C(=O)O)c2nc(N3Cc4ccccc4C3)c(C#N)c(=O)n2c1 [Example 11-325, (R)-2-chloro-5-((1-(3-cyano-2-(isoindolin-2-yl)-7-methyl-4-oxo-4H-pyrido[1,2-a]pyrimidin-9-yl)ethyl)amino)pyrimidine-4-carboxylic acid] | 3080 | > 10000 |
| Cc1cc([C@@H](C)Nc2ccc(Cl)cc2C(=O)O)c2nc(N3CCCCC3)c(C)c(=O)n2c1 [Example 11-281, (R)-5-chloro-2-((1-(3,7-dimethyl-4-oxo-2-(piperidin-1-yl)-4H-pyrido[1,2-a]pyrimidin-9-yl)ethyl)amino)benzoic acid] | 428 | > 10000 |
| Cc1cc([C@@H](C)Nc2ccccc2C(=O)O)c2nc(N3CCN(C4CCOCC4)CC3)c(C#N)c(=O)n2c1 [Example 11-186, (R)-2-((1-(3-cyano-7-methyl-4-oxo-2-(4-(tetrahydro-2H-pyran-4-yl)piperazin-1-yl)-4H-pyrido[1,2-a]pyrimidin-9-yl)ethyl)amino)benzoic acid] | 606 | > 10000 |
| Cc1cc([C@@H](C)Nc2ccccc2C(=O)O)c2nc(N3CCC(c4ccncc4)C3)c(C)c(=O)n2c1 (stereo partly drawn) [Example 10-9, 2-(((1R)-1-(3,7-dimethyl-4-oxo-2-(3-(pyridin-4-yl)pyrrolidin-1-yl)-4H-pyrido[1,2-a]pyrimidin-9-yl)ethyl)amino)benzoic acid] | 24.8 | > 10000 |
| Cc1cc([C@@H](C)Nc2ccccc2C(=O)O)c2nc(N3CC(C(F)F)C3)c(C#N)c(=O)n2c1 [Example 11-104, (R)-2-((1-(3-cyano-2-(3-(difluoromethyl)azetidin-1-yl)-7-methyl-4-oxo-4H-pyrido[1,2-a]pyrimidin-9-yl)ethyl)amino)benzoic acid] | 306 | > 10000 |
| Cc1cc([C@@H](C)Nc2ccccc2C(=O)O)c2nc(N3CCN(C(=O)c4ccccc4)CC3)c(C#N)c(=O)n2c1 [Example 11-263, (R)-2-((1-(2-(4-benzoylpiperazin-1-yl)-3-cyano-7-methyl-4-oxo-4H-pyrido[1,2-a]pyrimidin-9-yl)ethyl)amino)benzoic acid] | 1290 | > 10000 |
| Cc1cc([C@@H](C)Nc2ccccc2C(=O)O)c2nc(C#Cc3ccc(C#N)cc3)c(C)c(=O)n2c1 [Example 11-253, (R)-2-((1-(2-((4-cyanophenyl)ethynyl)-3,7-dimethyl-4-oxo-4H-pyrido[1,2-a]pyrimidin-9-yl)ethyl)amino)benzoic acid] | 492 | > 10000 |
| Cc1cc([C@@H](C)Nc2ccccc2C(=O)O)c2nc(-c3c[nH]cn3)c(C)c(=O)n2c1 [Example 11-235, (R)-2-((1-(2-(1H-imidazol-4-yl)-3,7-dimethyl-4-oxo-4H-pyrido[1,2-a]pyrimidin-9-yl)ethyl)amino)benzoic acid] | 3600 | > 10000 |
| Cc1cc([C@@H](C)Nc2ccccc2C(=O)O)c2nc(N3C[C@H]4C[C@@H]3CN4c3ccc(C#N)cc3)c(C)c(=O)n2c1 [Example 11-176, 2-(((R)-1-(2-((1R,4R)-5-(4-cyanophenyl)-2,5-diazabicyclo[2.2.1]heptan-2-yl)-3,7-dimethyl-4-oxo-4H-pyrido[1,2-a]pyrimidin-9-yl)ethyl)amino)benzoic acid] | 722 | > 10000 |
| Cc1cc(C(C)Nc2ccccc2C(=O)O)c2nc(N3CCCCC3)c(C(F)(F)F)c(=O)n2c1 (stereo not drawn) [Example 11-415, 2-((1-(7-methyl-4-oxo-2-(piperidin-1-yl)-3-(trifluoromethyl)-4H-pyrido[1,2-a]pyrimidin-9-yl)ethyl)amino)benzoic acid] | 532 | 890 |
